# Source: patent US20250122253A1, “REGULATING MICROTUBULE DYNAMICS AS A THERAPEUTIC TARGET FOR NERVE REPAIR” (City University of Hong Kong, priority 2023, published 2025)
# What was measured:
# [1] = system: motor function of injured hindlimb; assay: Toe spreading reflex (motor function recovery) after sciatic nerve crush; type: in vivo, mice
# Experimental: Adult male Fmn2^−/− mice (8-12 weeks old) and their age-matched WT littermates, or adult male C57BL/6 mice (for whole-body X-ray, AAV2/9-Fmn2-shRNA and metaxalone experiments) were trained and habituated one week before the sciatic nerve crush injury. After three independent training sessions (30 minutes per session with two days break), baseline values were taken, and sciatic nerve crush injury were performed one day after the baseline recordings. Function recovery was monitored for 30 days. On day 3 after the sciatic nerve crush, we first perform pinprick assay and followed by motor function assays every other day in a sequential manner (toe spreading, grip strength, and sciatic functional index) with 30 mins apart from each test. Animal behavioural tests were done blinded to the surgery and genotypes.
# To assess toe spreading reflex following PNI, mice were covered by a piece of cotton, lifted up by the tails, and uncovered their hindlimbs for assessment. Toe spreading reflex was scored as follow: 0 for no spreading, 1 for intermediate spreading with all toes separated for less than 2 seconds, and 2 for full spreading with all toes completely and widely spread, and sustained for at least two seconds. Mice were scored only when a full response was observed on the contralateral side (uninjured hindlimbs). Mice were assessed twice with 30-minute time interval in between.
# To examine the therapeutic potential of metaxalone, adult mice received daily intraperitoneal injection of metaxalone at 10 mg/kg immediately after injury for 21 consecutive days (i.e., metaxalone treatment) or delaying daily intraperitoneal injection of metaxalone at 10 mg/kg to 24 hours post-injury for 20 consecutive days (i.e., delayed metaxalone treatment), and all metaxalone treatments ended on day 21 post-injury. The mice were then subjected to sensory and motor function recovery tests and weekly EMG recordings for 28 days post-injury.
# [2] = system: acetylated tubulin; assay: Western blot of acetylated tubulin/total tubulin in sciatic nerve segments 0-6 mm distal to the crush site; type: in vivo, mice; settings: regenerating axons of sciatic nerves 3 days post-injury
# Experimental: Ipsilateral L4/5 DRG neurons were harvested at various time points following sciatic nerve injury as indicated. Sciatic nerves were harvested 3 days after crush injury and segmented into 0-6 mm distal to the crush site. Each protein sample was pooled from 3 mice. DRG neurons and segmented sciatic nerves were mechanically dissociated with protein lysis buffer, and subjected to measurement of protein concentration using protein BCA assay (Pierce). Protein lysate (30 μg) was separated on 4-12% NuPAGE Tris-Glycine precast gel (Invitrogen). Protein was then transferred onto a PVDF membrane (Bio-Rad) and blocked with 5% non-fat milk (Bio-Rad) in TBS-T. The membrane was incubated with anti-FMN2 (1:500; ProteinTech), anti-phosphorylated HDAC5 (1:500, ThermoFisher), anti-HDAC5 (1:500, Novus Biologicals), anti-acetylated tubulin (1:10,000; Sigma-Aldrich), anti-NeuN (1:500; Millipore), anti-SOX10 (1:500; Abcam), anti-IBA-1 (1:1,000; Wako), anti-GFP (1:1,000; Cell Signaling), and anti-GAPDH antibodies (1:2,000; ProteinTech) as loading controls. The membrane was incubated with secondary antibody conjugated with horseradish peroxidase (1:2,000; Thermo-Fisher). Signals were detected using West Femto Maximum Sensitivity Substrate Kit (Thermo Scientific). […] Band intensities were measured using Image Lab software (Bio-Rad). […]
# [3] = system: regenerating sensory axons of the injured sciatic nerve; assay: Sciatic nerve pinch test after sciatic nerve crush injury; type: in vivo, mice; settings: 3 days post-injury
# Experimental: Sciatic nerve crush or transection injury was performed in anesthetized adult male C57BL/6 or Fmn2^−/− mice (8-12 weeks old) as previously described. Briefly, the left sciatic nerve was exposed at mid-thigh level. For crush injury, the exposed nerve was crushed with smooth forceps (Dumont #5/45 Forceps, Fine Science Tools) at the sciatic notch for 15 seconds. For sciatic nerve transection, an epineural suture was first made at the level of external rotator muscle, just distal to the sciatic notch. The exposed nerve was then transected using a pair of ophthalmic microscissors just distal to the suture. After injury, the overlying muscle and skin were sutured using a 5-0 suture (Ethilon), and the mice were allowed to recover on a heated pad, and returned to their home cages after recovery. The surgeon was blinded to the genotypes and treatments.
# For in vivo gene silencing of Fmn2 and/or Hdac5 in DRGs, AAV2/9-Fmn2-shRNA and AAV2/9-Hdac5-shRNA at a titer of 5×10^12 vg/mL (OBIO Technology) were injected into the sciatic nerve directly through a glass micropipette using a microinjector (Harvard Apparatus) two weeks before sciatic nerve crush injury. The mice were then subjected to sciatic nerve crush injury and sciatic nerve pinch test (FIG. 4) and animal behavioural assessment (FIG. 15). The expression of shRNAs was under the control of the U6 promoter, and the expression of the reporter gene eGFP was under the control of the CAG promoter. AAV2/9-scr-shRNA (Packgene) was used as a negative control (see FIG. 22 for the shRNA sequences). On a separate batch of animals, the knockdown efficiency in DRGs was assessed by Western blot analysis in AAV2-Fmn2-shRNA and AAV2-Hdac5-shRNA mice two weeks after the AAV injection (FIGS. S8B and S9). […]
# Sciatic nerve pinch test was performed in the ipsilateral side 3 days after sciatic nerve crush injury. […] The distance (in mm) representing the length of axonal regrowth was recorded from the crushed site to the most distal point of sciatic nerve whereas initial withdrawal reflex was observed after pinching. […]
# [4] = cited from earlier work
# [5] = 10 mg/kg intraperitoneally immediately after PNI
compound,measurement,setting,value
Cc1cc(C)cc(OCC2CNC(=O)O2)c1 (stereo not shown) [metaxalone],"additional time vs metaxalone-treated mice to recover 50% and to fully regain toe spreading reflex, delayed treatment",[1]; 10 mg/kg intraperitoneally delayed to 24 hours post-injury,1 days
same,time to fully regain toe spreading reflex,[1]; [5],19 days
same,time to recover 50% of toe spreading reflex (reaching score 1),[1]; [5],14 days
same,tubulin acetylation,[2],reduction of tubulin acetylation
same,distal sensory axonal regrowth (length),"[3]; 0.25 μg/μl to the site of injury immediately after crush, twice per day, 3 consecutive days",4.82±0.32 mm
same,"axonal regrowth (length), delayed treatment","[3]; treatment delayed by 24 hours, 0.25 μg/μl to site of injury for 2 consecutive days",4.50±0.25 mm
same,half-life,[4],9 h
